Legend:
[1] = Drug uptake in anesthetized cynomolgus monkey brain occipital lobe after 22.5 mins postinjection; assay type: ADME, organism-based, Macaca fascicularis; details: in vivo, 0.375 h
[2] = Drug uptake in anesthetized cynomolgus monkey brain occipital lobe after 27.5 mins postinjection; assay type: ADME, organism-based, Macaca fascicularis; details: in vivo
[3] = Drug uptake in anesthetized cynomolgus monkey brain occipital lobe after 45 mins postinjection; assay type: ADME, organism-based, Macaca fascicularis; details: in vivo, 0.75 h
[4] = Drug uptake in anesthetized cynomolgus monkey brain occipital lobe after 125 mins postinjection; assay type: ADME, organism-based, Macaca fascicularis; details: in vivo
[5] = Drug uptake in anesthetized cynomolgus monkey brain occipital lobe after 135 mins postinjection; assay type: ADME, organism-based, Macaca fascicularis; details: in vivo, 2.25 h
[6] = Drug uptake in anesthetized cynomolgus monkey brain occipital lobe after 225 mins postinjection; assay type: ADME, organism-based, Macaca fascicularis; details: in vivo, 3.75 h
[7] = Drug uptake in anesthetized cynomolgus monkey brain frontal lobe after 0.5 mins postinjection; assay type: ADME, organism-based, Macaca fascicularis; details: in vivo
[8] = Drug uptake in anesthetized cynomolgus monkey brain frontal lobe after 12.5 mins postinjection; assay type: ADME, organism-based, Macaca fascicularis; details: in vivo
[9] = Drug uptake in anesthetized cynomolgus monkey brain frontal lobe after 175 mins postinjection; assay type: ADME, organism-based, Macaca fascicularis; details: in vivo
[10] = Drug uptake in anesthetized cynomolgus monkey brain frontal lobe after 235 mins postinjection; assay type: ADME, organism-based, Macaca fascicularis; details: in vivo
[11] = Ratio of drug uptake in midbrain to cerebellum in anesthetized cynomolgus monkey after 215 mins postinjection; assay type: ADME, organism-based, Macaca fascicularis; details: in vivo
[12] = Ratio of drug uptake in midbrain to cerebellum in anesthetized cynomolgus monkey after 225 mins postinjection; assay type: ADME, organism-based, Macaca fascicularis; details: in vivo, 3.75 h
[13] = Ratio of drug uptake in occipital lobe to cerebellum in anesthetized cynomolgus monkey after 105 mins postinjection; assay type: ADME, organism-based, Macaca fascicularis; details: in vivo, 1.75 h
[14] = Ratio of drug uptake in occipital lobe to cerebellum in anesthetized cynomolgus monkey after 135 mins postinjection; assay type: ADME, organism-based, Macaca fascicularis; details: in vivo, 2.25 h
Putamen [15] = test: Drug uptake in anesthetized cynomolgus monkey brain putamen after 135 mins postinjection; assay type: ADME, organism-based, Macaca fascicularis; details: in vivo, 2.25 h
Putamen [16] = test: Drug uptake in anesthetized cynomolgus monkey brain putamen after 155 mins postinjection; assay type: ADME, organism-based, Macaca fascicularis; details: in vivo
[17] = Ratio of drug uptake in occipital lobe to cerebellum in anesthetized cynomolgus monkey after 235 mins postinjection; assay type: ADME, organism-based, Macaca fascicularis; details: in vivo
[18] = Ratio of drug uptake in frontal lobe to cerebellum in anesthetized cynomolgus monkey after 3.5 mins postinjection; assay type: ADME, organism-based, Macaca fascicularis; details: in vivo
[19] = Ratio of drug uptake in frontal lobe to cerebellum in anesthetized cynomolgus monkey after 35 mins postinjection; assay type: ADME, organism-based, Macaca fascicularis; details: in vivo
Midbrain [20] = test: Drug uptake in anesthetized cynomolgus monkey brain midbrain after 145 mins postinjection; assay type: ADME, organism-based, Macaca fascicularis; details: in vivo
Midbrain [21] = test: Drug uptake in anesthetized cynomolgus monkey brain midbrain after 215 mins postinjection; assay type: ADME, organism-based, Macaca fascicularis; details: in vivo
Pons [22] = test: Drug uptake in anesthetized cynomolgus monkey brain pons after 6.5 mins postinjection; assay type: ADME, organism-based, Macaca fascicularis; details: in vivo
Pons [23] = test: Drug uptake in anesthetized cynomolgus monkey brain pons after 12.5 mins postinjection; assay type: ADME, organism-based, Macaca fascicularis; details: in vivo
Pons [24] = test: Drug uptake in anesthetized cynomolgus monkey brain pons after 18.5 mins postinjection; assay type: ADME, organism-based, Macaca fascicularis; details: in vivo
Pons [25] = test: Drug uptake in anesthetized cynomolgus monkey brain pons after 105 mins postinjection; assay type: ADME, organism-based, Macaca fascicularis; details: in vivo, 1.75 h
[26] = Ratio of drug uptake in caudate to cerebellum in anesthetized cynomolgus monkey after 55 mins postinjection; assay type: ADME, organism-based, Macaca fascicularis; details: in vivo
[27] = Ratio of drug uptake in caudate to cerebellum in anesthetized cynomolgus monkey after 135 mins postinjection; assay type: ADME, organism-based, Macaca fascicularis; details: in vivo, 2.25 h
[28] = Ratio of drug uptake in caudate to cerebellum in anesthetized cynomolgus monkey after 155 mins postinjection; assay type: ADME, organism-based, Macaca fascicularis; details: in vivo
Medulla [29] = test: Drug uptake in anesthetized cynomolgus monkey brain medulla after 3.5 mins postinjection; assay type: ADME, organism-based, Macaca fascicularis; details: in vivo
Medulla [30] = test: Drug uptake in anesthetized cynomolgus monkey brain medulla after 6.5 mins postinjection; assay type: ADME, organism-based, Macaca fascicularis; details: in vivo
Medulla [31] = test: Drug uptake in anesthetized cynomolgus monkey brain medulla after 9.5 mins postinjection; assay type: ADME, organism-based, Macaca fascicularis; details: in vivo
Medulla [32] = test: Drug uptake in anesthetized cynomolgus monkey brain medulla after 22.5 mins postinjection; assay type: ADME, organism-based, Macaca fascicularis; details: in vivo, 0.375 h
Medulla [33] = test: Drug uptake in anesthetized cynomolgus monkey brain medulla after 45 mins postinjection; assay type: ADME, organism-based, Macaca fascicularis; details: in vivo, 0.75 h
Medulla [34] = test: Drug uptake in anesthetized cynomolgus monkey brain medulla after 95 mins postinjection; assay type: ADME, organism-based, Macaca fascicularis; details: in vivo
Medulla [35] = test: Drug uptake in anesthetized cynomolgus monkey brain medulla after 105 mins postinjection; assay type: ADME, organism-based, Macaca fascicularis; details: in vivo, 1.75 h
[36] = Ratio of drug uptake in putamen to cerebellum in anesthetized cynomolgus monkey after 0.5 mins postinjection; assay type: ADME, organism-based, Macaca fascicularis; details: in vivo
Medulla [37] = test: Drug uptake in anesthetized cynomolgus monkey brain medulla after 135 mins postinjection; assay type: ADME, organism-based, Macaca fascicularis; details: in vivo, 2.25 h
[38] = Ratio of drug uptake in putamen to cerebellum in anesthetized cynomolgus monkey after 165 mins postinjection; assay type: ADME, organism-based, Macaca fascicularis; details: in vivo, 2.75 h
Medulla [39] = test: Drug uptake in anesthetized cynomolgus monkey brain medulla after 215 mins postinjection; assay type: ADME, organism-based, Macaca fascicularis; details: in vivo
[40] = Drug uptake in anesthetized cynomolgus monkey brain cerebellum after 27.5 mins postinjection; assay type: ADME, organism-based, Macaca fascicularis; details: in vivo
[41] = Drug uptake in anesthetized cynomolgus monkey brain cerebellum after 35 mins postinjection; assay type: ADME, organism-based, Macaca fascicularis; details: in vivo
[42] = Drug uptake in anesthetized cynomolgus monkey brain cerebellum after 95 mins postinjection; assay type: ADME, organism-based, Macaca fascicularis; details: in vivo
[43] = Drug uptake in anesthetized cynomolgus monkey brain cerebellum after 165 mins postinjection; assay type: ADME, organism-based, Macaca fascicularis; details: in vivo, 2.75 h
Caudate [44] = test: Drug uptake in anesthetized cynomolgus monkey brain caudate after 15.5 mins postinjection; assay type: ADME, organism-based, Macaca fascicularis, Caudate nucleus; details: in vivo
Caudate [45] = test: Drug uptake in anesthetized cynomolgus monkey brain caudate after 18.5 mins postinjection; assay type: ADME, organism-based, Macaca fascicularis, Caudate nucleus; details: in vivo
Caudate [46] = test: Drug uptake in anesthetized cynomolgus monkey brain caudate after 35 mins postinjection; assay type: ADME, organism-based, Macaca fascicularis, Caudate nucleus; details: in vivo
Caudate [47] = test: Drug uptake in anesthetized cynomolgus monkey brain caudate after 45 mins postinjection; assay type: ADME, organism-based, Macaca fascicularis, Caudate nucleus; details: in vivo, 0.75 h
Caudate [48] = test: Drug uptake in anesthetized cynomolgus monkey brain caudate after 115 mins postinjection; assay type: ADME, organism-based, Macaca fascicularis, Caudate nucleus; details: in vivo
Caudate [49] = test: Drug uptake in anesthetized cynomolgus monkey brain caudate after 145 mins postinjection; assay type: ADME, organism-based, Macaca fascicularis, Caudate nucleus; details: in vivo
Caudate [50] = test: Drug uptake in anesthetized cynomolgus monkey brain caudate after 235 mins postinjection; assay type: ADME, organism-based, Macaca fascicularis, Caudate nucleus; details: in vivo
Putamen [51] = test: Drug uptake in anesthetized cynomolgus monkey brain putamen after 3.5 mins postinjection; assay type: ADME, organism-based, Macaca fascicularis; details: in vivo
Thalamus [52] = test: Drug uptake in anesthetized cynomolgus monkey brain thalamus after 6.5 mins postinjection; assay type: ADME, organism-based, Macaca fascicularis; set-up: unit not given here; details: in vivo
Putamen [53] = test: Drug uptake in anesthetized cynomolgus monkey brain putamen after 4.5 mins postinjection; assay type: ADME, organism-based, Macaca fascicularis; set-up: unit not given here; details: in vivo, 0.075 h
Putamen [54] = test: Drug uptake in anesthetized cynomolgus monkey brain putamen after 15.5 mins postinjection; assay type: ADME, organism-based, Macaca fascicularis; set-up: unit not given here; details: in vivo
Putamen [55] = test: Drug uptake in anesthetized cynomolgus monkey brain putamen after 22.5 mins postinjection; assay type: ADME, organism-based, Macaca fascicularis; set-up: unit not given here; details: in vivo, 0.375 h
Putamen [56] = test: Drug uptake in anesthetized cynomolgus monkey brain putamen after 85 mins postinjection; assay type: ADME, organism-based, Macaca fascicularis; set-up: unit not given here; details: in vivo
Thalamus [57] = test: Drug uptake in anesthetized cynomolgus monkey brain thalamus after 65 mins postinjection; assay type: ADME, organism-based, Macaca fascicularis; set-up: unit not given here; details: in vivo
Thalamus [58] = test: Drug uptake in anesthetized cynomolgus monkey brain thalamus after 165 mins postinjection; assay type: ADME, organism-based, Macaca fascicularis; set-up: unit not given here; details: in vivo, 2.75 h
Thalamus [59] = test: Drug uptake in anesthetized cynomolgus monkey brain thalamus after 215 mins postinjection; assay type: ADME, organism-based, Macaca fascicularis; set-up: unit not given here; details: in vivo
Midbrain [60] = test: Drug uptake in anesthetized cynomolgus monkey brain midbrain after 0.5 mins postinjection; assay type: ADME, organism-based, Macaca fascicularis; set-up: unit not given here; details: in vivo
Midbrain [61] = test: Drug uptake in anesthetized cynomolgus monkey brain midbrain after 6.5 mins postinjection; assay type: ADME, organism-based, Macaca fascicularis; set-up: unit not given here; details: in vivo
Midbrain [62] = test: Drug uptake in anesthetized cynomolgus monkey brain midbrain after 15.5 mins postinjection; assay type: ADME, organism-based, Macaca fascicularis; set-up: unit not given here; details: in vivo
Midbrain [63] = test: Drug uptake in anesthetized cynomolgus monkey brain midbrain after 95 mins postinjection; assay type: ADME, organism-based, Macaca fascicularis; set-up: unit not given here; details: in vivo
Midbrain [64] = test: Drug uptake in anesthetized cynomolgus monkey brain midbrain after 115 mins postinjection; assay type: ADME, organism-based, Macaca fascicularis; set-up: unit not given here; details: in vivo
[65] = Ratio of drug uptake in midbrain to cerebellum in anesthetized cynomolgus monkey after 9.5 mins postinjection; assay type: ADME, organism-based, Macaca fascicularis; details: in vivo

SMILES: O=C(OCCC[18F])C1C2CCC(CC1c1cccc(/C=C\Br)c1)N2 (stereo not given)
- Drug uptake [1]: 4.5
- Drug uptake [2]: 4.71
- Drug uptake [3]: 4.61
- Drug uptake [4]: 3.64
- Drug uptake [5]: 3.57
- Drug uptake [6]: 2.54
- Drug uptake [7]: 0.01
- Drug uptake [8]: 3.5
- Drug uptake [9]: 2.51
- Drug uptake [10]: 2.01
- Ratio [11]: 2.2
- Ratio [12]: 2.1
- Ratio [13]: 1.1
- Ratio [14]: 1.2
- Drug uptake (Putamen [15]): 4.74
- Drug uptake (Putamen [16]): 4.38
- Ratio [17]: 1.4
- Ratio [18]: 0.5
- Ratio [19]: 0.7
- Drug uptake (Midbrain [20]): 5.18
- Drug uptake (Midbrain [21]): 4.58
- Drug uptake (Pons [22]): 3.6
- Drug uptake (Pons [23]): 4.51
- Drug uptake (Pons [24]): 4.55
- Drug uptake (Pons [25]): 4.38
- Ratio [26]: 1.1
- Ratio [27]: 1.5
- Ratio [28]: 1.6
- Drug uptake (Medulla [29]): 2.91
- Drug uptake (Medulla [30]): 5.26
- Drug uptake (Medulla [31]): 5.63
- Drug uptake (Medulla [32]): 6.29
- Drug uptake (Medulla [33]): 5.8
- Drug uptake (Medulla [34]): 5.59
- Drug uptake (Medulla [35]): 5.19
- Ratio [36]: 0.8
- Drug uptake (Medulla [37]): 4.99
- Ratio [38]: 1.7
- Drug uptake (Medulla [39]): 3.67
- Drug uptake [40]: 5.61
- Drug uptake [41]: 5.43
- Drug uptake [42]: 3.81
- Drug uptake [43]: 2.57
- Drug uptake (Caudate [44]): 4.3
- Drug uptake (Caudate [45]): 4.53
- Drug uptake (Caudate [46]): 5.13
- Drug uptake (Caudate [47]): 5.32
- Drug uptake (Caudate [48]): 4.71
- Drug uptake (Caudate [49]): 4.38
- Drug uptake (Caudate [50]): 3.28
- Drug uptake (Putamen [51]): 2.28
- Drug uptake (Thalamus [52]): 3.71
- Drug uptake (Putamen [53]): 3.11
- Drug uptake (Putamen [54]): 5.53
- Drug uptake (Putamen [55]): 5.81
- Drug uptake (Putamen [56]): 5.54
- Drug uptake (Thalamus [57]): 5.39
- Drug uptake (Thalamus [58]): 4.31
- Drug uptake (Thalamus [59]): 3.62
- Drug uptake (Midbrain [60]): 0.01
- Drug uptake (Midbrain [61]): 4.35
- Drug uptake (Midbrain [62]): 5.7
- Drug uptake (Midbrain [63]): 5.79
- Drug uptake (Midbrain [64]): 5.52
- Ratio [65]: 0.9
